Patent publication US20250144140A1, “METHODS FOR ALLOGENEIC HEMATOPOIETIC STEM CELL TRANSPLANTATION” (Orca Biosystems, Inc., priority 2022, published 2025)

How the values were obtained:
[1] = test system: subjects with advanced hematologic malignancies undergoing myeloablative allogeneic hematopoietic cell transplantation; test: Chronic GVHD, per NIH consensus criteria; format: in vivo, human; details: Example 3, serum tacrolimus trough level higher vs lower than 4 ng/ml
Description: Chronic GVHD was diagnosed, staged, and graded per the International NIH Chronic GVHD Diagnosis and Staging Consensus Working Group criteria.
Chronic GVHD: As chronic GVHD (cGVHD) is associated with significant morbidity and with decreased survival, reducing the severity or incidence of cGVHD has the potential to greatly benefit graft recipients. Chronic GVHD was diagnosed per 2014 International NIH Chronic GVHD Diagnosis and Staging Consensus Working Group criteria.
Analysis was conducted using a cutoff of 365 days (i.e., cGVHD events that occur after Day ^+365 were not included). […] Additionally, several subjects in the study group have undergone greater than 2.5 years of follow-up with no cGVHD symptoms reported.

[2] = test system: subjects with advanced hematologic malignancies undergoing myeloablative allogeneic hematopoietic cell transplantation; test: GVHD and relapse-free survival (GRFS); format: in vivo, human; details: Example 3, tacrolimus-only relative to sirolimus-only patients
Source text: GVHD and relapse-free survival is a composite readout that can refer to survival without relapse or Grade ≥3 acute or extensive chronic GVHD. At the time of reporting, the percent of GVHD-free and relapse-free survival to one-year post-transplant was 74% for the study group, compared to 34% for the SOC cohort, as shown in FIG. 4F. The difference was statistically significant (p=0.0001 by log-rank test).

[3] = test system: subjects with advanced hematologic malignancies undergoing myeloablative allogeneic hematopoietic cell transplantation; test: Overall survival; format: in vivo, human; details: Example 3, tacrolimus-only relative to sirolimus-only patients
Source text: Overall survival: OS was defined as the time from the date of transplant to the date of death from any cause or, for surviving patients, to the date of last follow-up. […] The difference was statistically significant (p=0.0242 by log-rank test).

[4] = test system: subjects with advanced hematologic malignancies undergoing myeloablative allogeneic hematopoietic cell transplantation; test: Disease relapse / relapse-free survival / disease status after therapy; format: in vivo, human; details: Example 3, tacrolimus-only relative to sirolimus-only patients
Source text: Incidence of disease relapse: For acute leukemias, relapse was defined as any of the following (MRD^+ alone was insufficient): (i) ≥5% blasts in the bone marrow or peripheral blood; or (ii) Reappearance of pre-transplant cytogenetic abnormality; or (iii) new evidence or redevelopment of extramedullary disease. For MDS, relapse was defined as any of the following: (i) satisfying criteria for evolution into acute leukemia; (ii) reappearance of pre-transplant morphologic abnormalities, detected in bone marrow specimens; or, (iii) reappearance of pre-transplant cytogenetic abnormality in at least one metaphase on each of two separate consecutive examinations at least one month apart, regardless of the number of metaphases analyzed.
Subjects in the study were first evaluated for relapse on day ^+90 post-transplant.

[5] = test system: subjects with advanced hematologic malignancies undergoing myeloablative allogeneic hematopoietic cell transplantation; details: in vivo
Source text: Acute GVHD was staged and graded per MAGIC Standardization criteria.
Acute GVHD was staged and graded per Mount Sinai Acute GvHD International Consortium (MAGIC) Standardization criteria.

[6] = test system: Patients with hematologic malignancies; test: Relapse, non-relapse mortality, relapse-free survival, GRFS and overall survival after transplant; format: in vivo, human; details: with Orca-T; relapse-free survival through 1 year; FIG. 14
Source text: FIGS. 1A-B illustrate the schematics of the transplant according to the methods described herein (identified as High-Precision Orca-T or Orca-T) and the differences compared to a standard of care (SOC) cohort (identified as Conventional Transplant or SOC).

SMILES | chronic GVHD rates [1] | GRFS rates [2] | overall survival rates [3] | survival (FIG. 7E) [3] | relapse rates [4] | GVHD rates [5] | effect of addition of thiotepa to busulfan-based conditioning regimens on relapse and non-relapse mortality [6]
C=CC[C@@H]1/C=C(\C)C[C@H](C)C[C@H](OC)[C@H]2O[C@@](O)(C(=O)C(=O)N3CCCC[C@H]3C(=O)O[C@H](/C(C)=C/[C@@H]3CC[C@@H](O)[C@H](OC)C3)[C@H](C)[C@@H](O)CC1=O)[C@H](C)C[C@@H]2OC [tacrolimus] | improvements | improved | improved | improved | improved | higher | –
S=P(N1CC1)(N1CC1)N1CC1 [thiotepa] | – | – | – | – | – | – | decreases relapse without increasing non-relapse mortality
